Results on one compound are retold here after US20190225643A1, “NOVEL NUCLEOSIDE ANALOGS AND USE THEREOF IN THERAPEUTIC TREATMENT” (CORNELL UNIVERSITY, priority 2016, published 2019).

For data set [1], the system named is BC3 cells. Put plainly: Annexin V/7-AAD cell death flow cytometry. In kind it is cell-based, human. The settings on record: 500 nM or 5 μM, 48 hours; versus IBL1. As for the experimental part: BC3 and IBL1 cells in the exponential phase were seeded at a cell density of 0.2 million cells/ml. Cells were treated with 0.1% DMSO or with 6-ETI at a final concentration of 500 nM or 5 μM for 24, 48 or 72 hrs. Post-treatment, cells were harvested and stained with 2.54 of Alexa Fluor 647 Annexin V conjugate (Life technologies) and 2.5 fit of 7-AAD (BD biosciences) and incubated for 15 minutes in the dark at room temperature. Subsequently, 2004 of Annexin V binding buffer (BD Biosciences) was added to the cell suspension and cells analyzed by flow cytometry using BD biosciences LSRII machine.
In general terms: A flow cytometer gives signals particle by particle.

The test system of data set [2] is BC3 cells. Kind of data set: Propidium iodide cell cycle flow cytometry. It counts as cell-based, human. The settings on record: BC3, 1 μM, 24 hours. How it is done: BC3 cells in the exponential phase were seeded at a cell density of 2*10^5 cells/mL. Cells were treated with 0.1% DMSO or with 6-ETI at a final concentration of 1 μM 6-ETI for 24 hrs for cell cycle. Post-treatment, cells were harvested, fixed and stained in Propidium Iodide (Roche). Subsequently, stained cells were analyzed by flow cytometry using BD FACS Aria II SORP cell sorter, and phases of the cell cycle modeled using FlowJo v7.6.5.

The test system of data set [3] is PEL cells (BC1, BC3). Kind of data set: Immunoblotting of PARP cleavage, LC3B cleavage and γH2AX in PEL cells. It counts as cell-based, human. How it is done: For all intracellular signaling studies, cell lines were plated at 2*10^5 cells/mL or at indicated densities in RPMI-1640 with 20% FBS, and treated with the stated concentrations of 6-ETI, from 6 to 48 hours. Immunoblotting was performed using the following antibodies: PARP (BD Pharmingen, 556494), LC3B (Cell Signaling, 2775S), phospho-l-listone H2AX.X S139 (Cell Signaling, 2577S), GAPDH (Gene Tex, GTX100118), ADK (Santa Cruz, sc-365470) vFLIP 6/14 antibody was a gift from Mary Collins at University College of London, vCyclin (Abcam, ab12208), LANA (Advanced Biotechnologies, 13-210-100), β-Actin (Sigma A5316), p65 (Cell Signaling C22B4, p50 (Cell Signaling 3035), October-1 (Cell Signaling 4428), p-IκBα (Santa Cruz 3-9 sc-8404), IκBα (Santa Cruz C-21 sc-371), pIKKα/β (ser 176)(Santa Cruz sc-21661), IKKα (Santa Cruz H-744 sc-7218).

Data set [4] relates to BC3 cells. Kind of data set: Trypan-blue exclusion viability, PEL cell line. It counts as cell-based. To be noted: Homo sapiens, BC-3; selected PEL cell line (BC3), 48 hours; read-out: LC50 by Trypan-blue exclusion. As for the experimental part:
(§1) Cell viability assays were performed by plating log-phase cells in RPMI complete media with 20% FBS at 1*10^5 cells/mL, with concentrations of 6-ETI or phospho-6-ETI ranging from 0.1 nM to 100 μM. ATP content at 24, 48 and 72 hours post-treatment was measured by the CellTiter-Glo kit (Promega, Madison, Wis.), or by Trypan blue assay as indicated. The LC50 for 6-ETI in each cell line was determined using online EC50 software at changbioscience.com or using GraphPad Prism to determine the LC50 for 6-ETI, phospho-6-ETI and nucleoside analogs in MM cell lines and primary MM patient samples.

Data set [5] relates to Primary CD138+ human myeloma cells. Put plainly: Ex vivo viability of primary multiple myeloma samples. It counts as cell-based. The settings on record: 24 hours. As for the experimental part: as §1
Bone marrow specimens were obtained from multiple myeloma patients at the New York-Presbyterian Hospital under informed consent as part of an Institutional Review Board-approved study in accordance with the Declaration of Helsinki. Primary CD138^+ human myelorna cells were isolated by Ficoll-Hypaque density gradient centrifugation. The CD138^+ bone marrow myeloma cells were then enriched from this fraction to >95% purity using an automated MACS CD138 MicroBeads system (Miltenyi Biotechnology, Inc., Auburn, Calif.). […] PBLs were harvested from normal blood using Ficoll-Paque (Sigma-Aldrich) as described previously. Cells were plated in RPMI-1640 supplemented with 20% FBS.

In data set [6] the test system is p65/p50 binding to the NF-κB response element in BC3 PEL cell line. Kind of data set: EMSA of NF-κB binding in BC3 cells. It counts as cell-based, human. How it is done:
BC3 or LCL9001 cells were plated at 5*10^5 cells/ml, and treated with the hit compounds at 25 μM or with NSC39368 at 5, 10, 25 and 50 μM for 24 hours. Nuclear extracts were obtained as previously described (Keller S. A. et al., Blood. 2000 96(7):2537-42), and electrophoretic mobility shift assays (EMSAs) were performed using an NF-κB-specific oligonucleotide probe.
For orientation: Mobility shift assays separate free from complexed probe on a gel.

Data set [7] deals with IBL-1 subcutaneous xenograft. Put plainly: Xenograft model of EBV-associated immunoblastic lymphoma. It counts as in vivo, mouse. To be noted: 300 mg/kg/day i.p., 5 treatments over 10 days. How it is done:
The in vivo xenograft model of EBV-associated immunoblastic lymphoma was generated by injecting NOD-SCID mice (obtained from Jackson Laboratory Stock# 001303) subcutaneously on the flank region with 5*10^6IBL-1 cells in 200 μl of 50:50 matrigel/cell suspension per mouse. After forming palpable or measurable tumors, mice were randomly grouped (n=3 per group) and treated intraperitoneally with vehicle PBS-Tween80 or 6-ETI (300mg/kg/day) for 5 treatments over the course of 10 days where drug was administered three times a week. Tumor size was assessed by caliper measurement three times a week, and tumor volume (V) was calculated using the formula V=(length×Width^2)/2 where L=length or largest tumor diameter and W=width or the perpendicular tumor diameter. Relative tumor volume was determined according to the formula Vd/V0 where Vd is tumor volume on the day of measurement, and V0 represents the tumor volume on day 0 when the treatment started. At the end of the treatment course, two of the control mice were treated with vehicle PBS-Tween80 or 6-ETI (300 mg/kg) for 24 hr after which the tumors were harvested, fixed in 10% formalin and embedded in paraffin for histological examination and immunohistochemistry.

For data set [8] the following is noted: 200 mg/kg for 9 days; cited from earlier work.
Data set [9] deals with MM cell lines JJN3, MM1S, U266 and CAG. Put plainly: CellTiter-Glo viability assay, MM cell lines. It counts as cell-based. How it is done:
as §1
A general note: ATP-based viability assays read luminescence as a measure of living cells.

Data set [10] deals with IBL-1 (EBV+ DLBCL). Put plainly: cells. It counts as cell-based. To be noted: Homo sapiens, 48 h, read-out: LC50 IBL-1 (DLBCL). How it is done: as §1
Data set [11] relates to PEL cells (BC3). Kind of data set: Viability after zVAD-FMK pan-caspase inhibitor pre-treatment. The settings on record: 80 μM zVAD-FMK pre-treatment, 48 hours. In kind it is cell-based, human. As for the experimental part:
as §1

Turning to `CCSc1ncnc2c1ncn2[C@@H]1O[C@H](CO)C(O)[C@@H]1O` (some centres unmarked) [Compound 6-ETI, 6-ethylthioinosine], the “proportion of dead cells (Annexin V/7-AAD)” value in data set [1] is recorded as “higher proportion of dead cells”. Moreover, the cell cycle distribution result in data set [2] was “reproducible increase in the percentage of cells in S-phase”. Further, the “DNA damage marker γH2AX” value in data set [3] (1 μM and 10 μM, 24 hours) is given as “appearance of γH2AX”. In addition, the “autophagy (LC3B cleavage product)” value in data set [3] (1 μM, 24 hr) was “some induction of autophagy”. Moreover, the “apoptosis (PARP cleavage)” value in [3] (BC1 and BC3, 1 μM, 24 hrs) is “small but observable increases in apoptosis”. The CC50 in data set [4] is 74 nM; in [10], more than 100000 nM. The sensitivity ex vivo result in data set [5] is reported as “showed sensitivity”. Moreover, the “inhibition of active heterodimer p65/p50 binding to the NF-κB response element” value in [6] (BC3, 24 hours) was “effectively inhibited”. Further, the “doses effective in inhibiting NF-κB in PELs” value in [6] (PEL cells) fell in the range of 10 to 50 µM. Moreover, in data set [7], the tumor growth result is “reduced the rate of tumor growth”. Further, in data set [8], the reported toxicities result was “no reported toxicities”. Further, the LC50 result in data set [9] was “high nM range”. For the same compound, the “caspase dependence of induced cell death” value in data set [11] is reported as “largely caspase-independent”.
